# Test results as given in patent publication US9227923B2, “Pesticidal carboxamides” (Bayer Intellectual Property GmbH, priority 2009, dated 2016).
# How the values were obtained:
# [1] = tested on: Tobacco Cutworm (Spodoptera litura) Larvae; assay: Test against tobacco cutworm (Spodoptera litura) larvae, leaf dip; format: in vivo; conditions: Spodoptera litura, foliar, 168 h; active compound concentration of 100 ppm; third instar larvae; after 7 days; read-out: insecticidal activity
# Outline: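 Sweet potato leaves were dipped in the test solution (DMF solvent, polyoxyethylene alkyl phenyl ether emulsifier), air-dried and offered to ten third-instar larvae per dish at 25 °C, with fresh leaves added on days 2 and 4. Mortality was counted at day 7 and expressed as % insecticidal activity (100% = all dead).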
# [2] = tested on: Two-Spotted Spider Mite (Tetranychus Urticae); assay: Test against two-spotted spider mite (Tetranychus urticae), spray; format: in vivo; conditions: active compound concentration of 100 ppm; adult mites; after 7 days
# Description: Solvent: 3 parts by weight of dimethylformamide
# Emulsifier: 1 part by weight of polyoxyethylene alkyl phenyl ether
# [3] = tested on: Cucurbit Leaf Beetle (Aulacophora Femoralis); assay: Test against cucurbit leaf beetle (Aulacophora femoralis), leaf dip; format: in vivo; conditions: Aulacophora, foliar, 168 h; active compound concentration of 100 ppm; second instar larvae; after 7 days; read-out: insecticidal activity
# Outline: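 Cucumber leaves dipped in compound solution (DMF solvent, polyoxyethylene alkyl phenyl ether emulsifier), air-dried, and placed with five second-instar larvae in cups on sterilized soil at 25° C. Dead larvae counted after 7 days; activity expressed as percent larvae killed.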
# [4] = tested on: Boophilus microplus; assay: Boophilus microplus test (injection); format: in vivo; conditions: Rhipicephalus microplus, 168 h, read-out: activity (mortality in %; 100% means that all eggs are infertile)
# Method: (§1) Solvent: dimethyl sulfoxide
# Five adult engorged female ticks (Boophilus microplus) are injected with […] compound solution into the abdomen. Ticks are transferred into replica plates and incubated in a climate chamber for a period of time. Egg deposition of fertile eggs is monitored.
# After 7 days mortality in % is determined. 100% means that all eggs are infertile; 0% means that all eggs are fertile. […]
# [5] = tested on: Ctenocephalides felis; assay: whole plant or invertebrate; format: in vivo; conditions: Ctenocephalides felis, in Bos taurus, 48 h, read-out: activity (mortality in %)
# Method: as §1
# Approximately 20 adult unfed (Ctenocepahlides felis) are placed in flea chambers. […] The blood chamber is heated to 37° C. whereas the flea chamber is kept at room temperature.
# [6] = tested on: Lucilia cuprina 1st instar larvae; assay: whole plant or invertebrate; format: in vivo; conditions: Lucilia cuprina, 48 h, read-out: activity (percentage of larval mortality)
# Method: species: Lucilia cuprina 1st instar larvae (age 24 hrs)
# solvent: dimethyl sulfoxide
# Serial dilutions are made to obtain the desired rates. Approximately 20 Lucilia cuprina 1st instar larvae are transferred into a test tube containing 1 cm^3 of minced horse meat and 0.5 ml aqueous dilution of test compound. After 48 hrs percentage of larval mortality are recorded. 100% efficacy=all larvae are killed, […].
# [7] = tested on: Musca domestica; assay: whole plant or invertebrate; conditions: 48 h, read-out: activity (mortality in %)
# Method: as §1
# Prior to the assay, a piece of kitchen sponge is soaked with a mixture of sugar and compound solution and placed into a container. 10 adults (Musca domestica) are placed into the container and closed with a perforated lid. After 2 days mortality in % is determined 100% means that all the flies have been killed; 0% means that none of the flies have been killed.
structure (smiles),measurement,setting,value
"O=C(Nc1c(Br)cc(C(F)(C(F)(F)F)C(F)(F)F)cc1Br)c1ccc(-n2cncn2)cc1 [Compound 1-78, N-[2,6-dibromo-4-(1,1,1,2,3,3,3-heptafluoropropan-2-yl)-phenyl]-4-(1H-1,2,4-triazol-1-yl)benzamide]",pest or weed control at 100 ppm,[1],100%
same,acaricidal activity,[2],100%
same,pest or weed control at 100 ppm,[3],100%
same,mortality at 0.02 mg,[4],100%
same,mortality at 100 ppm,[5],100%
same,mortality at 100 ppm,[6],100%
same,mortality at 100 ppm,[7],100%
"CCc1cc(C(F)(C(F)(F)F)C(F)(F)F)cc(C)c1NC(=O)c1ccc(-n2cncn2)cc1 [Compound 1-31, N-[2-ethyl-4-(1,1,1,2,3,3,3-heptafluoropropan-2-yl)-6-methylphenyl]-4-(1H-1,2,4-triazol-1-yl)benzamide]",pest or weed control at 100 ppm,[1],100%
same,acaricidal activity,[2],100%
same,pest or weed control at 100 ppm,[3],100%
same,mortality at 0.02 mg,[4],100%
same,mortality at 100 ppm,[5],90%
same,mortality at 100 ppm,[6],100%
"CCc1cc(C(F)(C(F)(F)F)C(F)(F)F)cc(C)c1NC(=O)c1ccc(-n2cncn2)c([N+](=O)[O-])c1 [Compound 1-39, N-[2-ethyl-4-(1,1,1,2,3,3,3-heptafluoropropan-2-yl)-6-methyl-phenyl]-3-nitro-4-(1H-1,2,4-triazol-1-yl)benzamide]",pest or weed control at 100 ppm,[1],100%
same,acaricidal activity,[2],100%
same,mortality at 0.02 mg,[4],100%
same,mortality at 100 ppm,[5],100%
same,mortality at 100 ppm,[6],100%
same,mortality at 100 ppm,[7],100%
"CCc1cc(C(F)(C(F)(F)F)C(F)(F)F)cc(C)c1NC(=O)c1ccc(-n2cncn2)c(C#N)c1 [Compound 1-49, 3-cyano-N-[2-ethyl-4-(1,1,1,2,3,3,3-heptafluoropropan-2-yl)-6-methylphenyl]-4-(1H-1,2,4-triazol-1-yl)benzamide]",pest or weed control at 100 ppm,[1],100%
same,acaricidal activity,[2],100%
same,pest or weed control at 100 ppm,[3],100%
same,mortality at 0.02 mg,[4],100%
same,mortality at 100 ppm,[5],95%
same,mortality at 100 ppm,[6],100%
